Laboratory results taken from patent US11192863B2, “Antiviral compounds and methods” (Biotron Limited, priority 2003, dated 2021).
Several values for one entry are separate records, joined by “and”; a condition that tells them apart may be missing. Identical values can stand only once. Like-named read-outs stand apart in the source and are kept apart here.

Tests used:
MHV (strain MHV-A59) = conditions: L929 cells
Vpu protein = Vpu protein (Human immunodeficiency virus type 1 group M subtype B, UniProt P05919); conditions: halo of growth score between zero and six; XL1-blue E. coli with pPL-Vpu, no adenine, 37° C.
Chain of Vpu protein (P05919 whole entry): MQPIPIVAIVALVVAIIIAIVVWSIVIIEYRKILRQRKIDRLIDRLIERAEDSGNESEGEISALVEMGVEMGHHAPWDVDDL

SARS-CoV E protein = SARS-CoV E protein (Severe acute respiratory syndrome coronavirus, UniProt P59637); format: cell-based
Chain of SARS-CoV E protein (P59637 whole entry, looked up): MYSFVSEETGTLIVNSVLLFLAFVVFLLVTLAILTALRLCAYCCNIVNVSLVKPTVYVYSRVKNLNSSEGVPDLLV

Row | Structure (SMILES) | Percent reduction in Plaque number/# experiments (MHV (strain MHV-A59); 1 uM) | Percent reduction in Plaque number/# experiments (MHV (strain MHV-A59); 10 uM) | Percent reduction in Plaque number/# experiments (MHV (strain MHV-A59); 20 uM) | Vpu Inhibition (score/# of times tested) (Vpu protein) | SARS E protein Inhibition (score/# of times tested) (SARS-CoV E protein) | Toxic (noted in place of plaque reduction) (MHV (strain MHV-A59); 20 uM)
1 | NC(N)=NC(=O)c1nc(-c2ccccc2)c(N2CCCCCC2)nc1N [N-amidino-3-amino-5-hexamethyleneimino-6-phenyl-2-pyrazinecarboxamide] | 48/1% | 52/2% | 84/1% | 0.6/2 score |  | 
2 | NC(N)=NC(=O)c1nc(-c2ccccc2)c(N)nc1N [N-amidino-3,5-diamino-6-phenyl-2-pyrazinecarboxamide] | 25/1% | 39/2% | 53/1% |  |  | 
3 | N/C(=N/C(=O)c1ccc2ccccc2c1)Nc1ccccc1 [N-(2-napthoyl)-N′-phenylguanidine] |  |  |  |  | 0.07/2 score | 
4 | N=C(N)NC(=O)Cc1ccccc1 [(Phenylacetyl)guanidine] | 3/1% | 22/1% | 35/1% |  | 0.32/3 score | 
5 | NC(N)=NC(=O)c1cnc2ccccc2c1 [3-quinolinoylguanidine] | 30/1% | 36/2% | 27/1% |  |  | 
6 | N=C(N)NC(=O)c1ccccc1 [Benzyoylguanidine, Benzoylguanidine] | 14/1% | 39/2% | 22/1% | 0.88/2 score |  | 
7 | Cl.NC(N)=NC(=O)c1nc(Cl)c(N)nc1N [Amiloride•HCl, reference compound] | −5/1% | 18/1% | 21/1% |  |  | 
8 | NC(N)=NC(=O)c1ccc2ccccc2n1 [(Quinoline-2-carbonyl)guanidine] | 12/1% | 84/1% | 86/1% |  | 0.41/1 score | 
9 | NC(N)=NC(=O)c1nc(Cl)c(N2CCCCCC2)nc1O [3-hydroxy-5-hexamethyleneimino-amiloride] | 1/1% | 22/2% | 16/1% |  |  | 
10 | N=C(N)NC(=O)/C=C/c1cccnc1 [[3-(3-Pyridyl)acryloyl]guanidine] | 21/2% | 73/2% | 81/2% |  | 0.67/3 score | 
11 | N=C(NC(=O)c1ccc2ccccc2c1)NC(=O)c1ccc2ccccc2c1 [N,N′-bis(2-napthoyl)guanidine] | 3/1% | 3/2% | 5/1% |  |  | 
12 | N=C(N)NC(=O)c1ccc2cc(Br)ccc2c1 [6-bromo-2-napthoylguanidine] | 19/1% | 43/1% and 37/2% | 65/1% |  | 0.25/1 score | 
13 | O=C(/C=C/c1ccccc1)N=C(Nc1ccccc1)Nc1ccccc1 [N″-Cinnamoyl-N,N′-diphenylguanidine] | 34/1% | 72/2% | 97/1% |  |  | 
14 | N=C(N)NC(=O)/C=C/c1c(F)cccc1Cl [2-chloro-6-fluorocinnamoylguanidine] | 9/1% | 84/2% | 100/1% |  | 0.25/1 score | 
15 | NC(N)=NC(=O)c1nc(Cl)c(-c2ccccc2)nc1N [N-amidino-3-amino-5-phenyl-6-chloro-2-pyrazinecarboxamide] | 9/1% | 20/2% | 20/1% | 0.5/11 score |  | 
16 | C/C(=C\c1ccc(N(C)C)cc1)C(=O)NC(=N)N [[(E)-3-(4-Dimethylaminophenyl)-2-methylacryloyl]guanidine] | 37/1% | 45/1% | 56/1% |  |  | 
17 | N=C(N)NC(=O)/C=C/c1ccc([N+](=O)[O-])cc1 [(4-Nitrocinnamoyl)guanidine] | 40/3% | 75/3% | 97/1% |  |  | 
18 | NC(N)=NC(=O)c1nc(I)c(N)nc1N [6-Iodoamiloride] | 0/1% | 21/1% | 28/1% |  | 1.75/2 score | 
19 | N=C(N)NC(=O)/C=C/c1ccccc1[N+](=O)[O-] [(2-Nitrocinnamoyl)guanidine] | 47/1% | 77/2% | 97/1% | 0.4/2 score |  | 
20 | CN(C)C(=N)NC(=O)/C=C/c1ccccc1 [N-Cinnamoyl-N′,N′-dimethylguanidine] | 24/2% | 65/3% | 92/2% |  |  | 
21 | N=C(N)NC(=O)/C=C/C=C/c1ccccc1Br [5-(2′-bromophenyl)penta-2,4-dienoylguanidine] | 57/1% | 100/1% |  |  |  | Toxic
22 | N=C(NC(=O)c1cccc2ccccc12)NC(=O)c1cccc2ccccc12 [N,N′-bis(1-napthoyl)guanidine] | 35/1% | 52/2% | 58/1% |  |  | 
23 | O=C(/C=C/c1ccccc1)NC(=Nc1ccccc1)NC(=O)/C=C/c1ccccc1 [N,N′-bis-(cinnamoyl)-N″-phenylguanidine] | 31/1% | 38/2% | 16/1% | 0.94/2 score |  | 
